For 23 compounds, pest or weed control results are on record in US10251394B2, “Molecules having pesticidal utility, and intermediates, compositions, and processes, related thereto” (Dow AgroSciences LLC, priority 2016, dated 2019).

Experiment [1] relates to Beet Armyworm (Spodoptera exigua). Put plainly: Bioassay on Beet Armyworm (BAW), 128-well diet tray assay. The experiment is classed as in vivo. The note with it: Beet Armyworm, Table ABC, read-out: BAW rating. The procedure, abridged: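 Percent mortality, averaged over eight wells, was scored after five to seven days at 25° C under 14:10 light-dark. Each well's diet carried 50 μg/cm^2 of test molecule applied in acetone-water (90:10) and dried before one to five second-instar larvae were added.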

For experiment [2], the system named is Cabbage Looper (Trichoplusia ni). The experiment can be described thus: Bioassay on Cabbage Looper (CL), 128-well diet tray assay. Type of experiment: in vivo. The settings on record: Cabbage Looper, Table ABC, read-out: CL rating. The procedure, abridged: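 Mortality after five to seven days at 25° C (14:10 photoperiod), averaged over eight wells per compound. Diet in each well carried 50 μg/cm^2 of dried test molecule and received one to five second-instar larvae.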

As for `O=C(CNC(=O)c1ccc(/C(F)=C/C(c2ccc(Br)c(Br)c2)C(F)(F)F)cc1C(F)(F)F)NCC(F)(F)F` (stereo not shown) [F107, (Z)-4-(3-(3,4-Dibromophenyl)-1,4,4,4-tetrafluorobut-1-en-1-yl)-N-(2-oxo-2-((2,2,2-trifluoroethyl)amino)ethyl)-2-(trifluoromethyl)benzamide], the pest or weed control at 50 µg/cm2 in experiment [1] and in experiment [2] was 50 to 100% throughout.

Regarding `CN(CC(F)(F)F)C(=O)C1(NC(=O)c2ccc(/C(F)=C/C(c3cc(Br)cc(Br)c3)C(F)(F)F)cc2C(F)(F)F)CC1` (stereo not shown) [F108, (Z)-4-(3-(3,5-Dibromophenyl)-1,4,4,4-tetrafluorobut-1-en-1-yl)-N-(1-(methyl(2,2,2-trifluoroethyl)carbamoyl)cyclopropyl)-2-(trifluoromethyl)benzamide], the pest or weed control at 50 µg/cm2 in experiment [1] and in experiment [2] was 50 to 100% each time.

Regarding `C[C@@H](NC(=O)c1ccc(/C(F)=C/C(c2cc(Cl)cc(Br)c2)C(F)(F)F)cc1C(F)(F)F)C(=O)NCC(F)(F)F` (stereo partly shown) [F109], the pest or weed control at 50 µg/cm2 in experiment [1] and in experiment [2] was 50 to 100% in each case.

`O=C(CNC(=O)c1ccc(/C(F)=C/C(c2cc(Cl)c(Br)c(Cl)c2)C(F)(F)F)cc1C(F)(F)F)NCC(F)(F)F` (stereo not shown) [F110]: the pest or weed control at 50 µg/cm2 in experiment [1] and in experiment [2] was 50 to 100% in each case.

In the case of `C=Cc1c(Cl)cc(C(/C=C(\F)c2ccc(C(=O)NC3(C(=O)N(C)CC(F)(F)F)CC3)c(C(F)(F)F)c2)C(F)(F)F)cc1Cl` (stereo not shown) [F111, (Z)-4-(3-(3,5-Dichloro-4-vinylphenyl)-1,4,4,4-tetrafluorobut-1-en-1-yl)-N-(1-(methyl(2,2,2-trifluoroethyl)carbamoyl)cyclopropyl)-2-(trifluoromethyl)benzamide], the pest or weed control at 50 µg/cm2 in experiment [1] and in experiment [2] was 50 to 100% in each case.

With `C[C@@H](NC(=O)c1ccc(/C(F)=C/C(c2ccc(Cl)c(Cl)c2)C(C)(F)F)cc1C(F)(F)F)C(=O)NCC(F)(F)F` (stereo partly drawn) [F112, 4-((Z)-3-(3,4-Dichlorophenyl)-1,4,4-trifluoropent-1-en-1-yl)-N—((R)-1-oxo-1-((2,2,2-trifluoroethyl)amino)propan-2-yl)-2-(trifluoromethyl)benzamide], the pest or weed control at 50 µg/cm2 in experiment [1] and in experiment [2] was 50 to 100% throughout.

For `CN(CC(F)(F)F)C(=O)C1(NC(=O)c2ccc(/C(F)=C/C(c3cc(Cl)c(Br)c(Cl)c3)C(F)(F)F)cc2C(F)(F)F)CC1` (stereo not shown) [F117, (Z)-4-(3-(4-Bromo-3,5-dichlorophenyl)-1,4,4,4-tetrafluorobut-1-en-1-yl)-N-(1-(methyl(2,2,2-trifluoroethyl)carbamoyl)cyclopropyl)-2-(trifluoromethyl)benzamide], the pest or weed control at 50 µg/cm2 in experiment [1] and in experiment [2] was 50 to 100% in each case.

As to `C[C@@H](NC(=O)c1ccc(/C(F)=C/C(c2ccc(Cl)c(Cl)c2)C(F)(F)F)cc1Br)C(=O)NCC(F)(F)F` (stereo partly drawn) [F123, 2-Bromo-4-((Z)-3-(3,4-dichlorophenyl)-1,4,4,4-tetrafluorobut-1-en-1-yl)-N—((R)-1-oxo-1-((2,2,2-trifluoroethyl)amino)propan-2-yl)benzamide], the pest or weed control at 50 µg/cm2 in experiment [1] and in experiment [2] was 50 to 100% each time.

For the compound `O=C(CNC(=O)c1ccc(/C(F)=C/C(c2ccc(Cl)c(Cl)c2)C(F)(F)F)cc1Br)NCC(F)(F)F` (stereo not shown) [F124, (Z)-2-Bromo-4-(3-(3,4-dichlorophenyl)-1,4,4,4-tetrafluorobut-1-en-1-yl)-N-(2-oxo-2-((2,2,2-trifluoroethyl)amino)ethyl)benzamide], the pest or weed control at 50 µg/cm2 in experiment [1] and in experiment [2] was 50 to 100% throughout.

Consider `O=C(NC1(C(=O)NCC(F)(F)F)CC1)c1ccc(/C(F)=C/C(c2ccc(Cl)c(Cl)c2)C(F)(F)F)cc1Br` (stereo not shown) [F125, (Z)-2-Bromo-4-(3-(3,4-dichlorophenyl)-1,4,4,4-tetrafluorobut-1-en-1-yl)-N-(1-((2,2,2-trifluoroethyl)carbamoyl)cyclopropyl)benzamide], for which the pest or weed control at 50 µg/cm2 in experiment [1] and in experiment [2] was 50 to 100% each time.

For the compound `CC[C@@H](NC(=O)c1ccc(/C(F)=C/C(c2cc(Cl)c(Cl)c(Cl)c2)C(F)(F)F)cc1C(F)(F)F)C(N)=O` (stereo partly drawn) [F126, N—((R)-1-Amino-1-oxobutan-2-yl)-4-((Z)-1,4,4,4-tetrafluoro-3-(3,4,5-trichlorophenyl)but-1-en-1-yl)-2-(trifluoromethyl)benzamide], the pest or weed control at 50 µg/cm2 in experiment [1] and in experiment [2] was 50 to 100% each time.

`NC(=O)CNC(=O)c1ccc(/C(F)=C/C(c2cc(Cl)c(Cl)c(Cl)c2)C(F)(F)F)cc1C(F)(F)F` (stereo not shown) [F127, (Z)—N-(2-Amino-2-oxoethyl)-4-(1,4,4,4-tetrafluoro-3-(3,4,5-trichlorophenyl)but-1-en-1-yl)-2-(trifluoromethyl)benzamide]: the pest or weed control at 50 µg/cm2 in experiment [1] and in experiment [2] was 50 to 100% in each case.

In the case of `CC(F)(F)C(/C=C(\F)c1ccc(C(=O)NC2(C(=O)NCC(F)(F)F)CC2)c(C(F)(F)F)c1)c1ccc(Cl)c(Cl)c1` (stereo not shown) [F128, (Z)-4-(3-(3,4-Dichlorophenyl)-1,4,4-trifluoropent-1-en-1-yl)-N-(1-((2,2,2-trifluoroethyl)carbamoyl)cyclopropyl)-2-(trifluoromethyl)benzamide], the pest or weed control at 50 µg/cm2 in experiment [1] and in experiment [2] was 50 to 100% throughout.

For `CC(F)(F)C(/C=C(\F)c1ccc(C(=O)NCC(=O)NCC(F)(F)F)c(C(F)(F)F)c1)c1ccc(Cl)c(Cl)c1` (stereo not shown) [F129, (Z)-4-(3-(3,4-Dichlorophenyl)-1,4,4-trifluoropent-1-en-1-yl)-N-(2-oxo-2-((2,2,2-trifluoroethyl)amino)ethyl)-2-(trifluoromethyl)benzamide], the pest or weed control at 50 µg/cm2 in experiment [1] and in experiment [2] was 50 to 100% each time.

Turning to `C[C@@H](NC(=O)c1ccc(/C(F)=C/C(c2cc(Cl)c(Cl)c(Cl)c2)C(F)(F)F)cc1C(F)(F)F)C(=O)/C=C/CC(F)(F)F` (stereo partly shown) [F140], the pest or weed control at 50 µg/cm2 in experiment [1] and in experiment [2] was 50 to 100% throughout.

Turning to `C=C(C)c1c(Cl)cc(C(/C=C(\F)c2ccc(C(=O)N[C@H](C)C(=O)NCC(F)(F)F)c(C(F)(F)F)c2)C(F)(F)F)cc1Cl` (stereo partly drawn) [F148, 4-((Z)-3-(3,5-Dichloro-4-(prop-1-en-2-yl)phenyl)-1,4,4,4-tetrafluorobut-1-en-1-yl)-N—((R)-1-oxo-1-((2,2,2-trifluoroethyl)amino)propan-2-yl)-2-(trifluoromethyl)benzamide], the pest or weed control at 50 µg/cm2 in experiment [1] and in experiment [2] was 50 to 100% in each case.

For `O=C(N[C@@H]1CON(CC(F)(F)F)C1=O)c1ccc(/C(F)=C/C(c2ccc(F)c(C(F)(F)F)c2)C(F)(F)F)cc1C(F)(F)F` (stereo partly drawn) [F150, N—((R)-3-Oxo-2-(2,2,2-trifluoroethyl)isoxazolidin-4-yl)-4-((2)-1,4,4,4-tetrafluoro-3-(4-fluoro-3-(trifluoromethyl)phenyl)but-1-en-1-yl)-2-(trifluoromethyl)benzamide], the pest or weed control at 50 µg/cm2 in experiment [1] and in experiment [2] was 50 to 100% each time.

In the case of `C[C@@H](NC(=O)c1ccc(/C(F)=C/C(c2cc(F)c(F)c(Cl)c2)C(F)(F)F)cc1C(F)(F)F)C(=O)NCC(F)(F)F` (stereo partly drawn) [F154, 4-((Z)-3-(3-Chloro-4,5-difluorophenyl)-1,4,4,4-tetrafluorobut-1-en-1-yl)-N—((R)-1-oxo-1-((2,2,2-trifluoroethyl)amino)propan-2-yl)-2-(trifluoromethyl)benzamide], the pest or weed control at 50 µg/cm2 in experiment [1] and in experiment [2] was 50 to 100% in each case.

As to `COc1ccc(C(/C=C(\F)c2ccc(C(=O)NCC(=O)NCC(F)(F)F)c(C(F)(F)F)c2)C(F)(F)F)cc1Cl` (stereo not shown) [F158, (Z)-4-(3-(3-Chloro-4-methoxyphenyl)-1,4,4,4-tetrafluorobut-1-en-1-yl)-N-(2-oxo-2-((2,2,2-trifluoroethyl)amino)ethyl)-2-(trifluoromethyl)benzamide], the pest or weed control at 50 µg/cm2 in experiment [1] and in experiment [2] was 50 to 100% throughout.

With `C[C@@H](NC(=O)c1ccc(/C(F)=C/C(c2ccc(OCC(F)(F)F)c(Cl)c2)C(F)(F)F)cc1C(F)(F)F)C(=O)NCC(F)(F)F` (stereo partly drawn) [F162, 4-((Z)-3-(3-Chloro-4-(2,2,2-trifluoroethoxy)phenyl)-1,4,4,4-tetrafluorobut-1-en-1-yl)-N—((R)-1-oxo-1-((2,2,2-trifluoroethyl)amino)propan-2-yl)-2-(trifluoromethyl)benzamide], the pest or weed control at 50 µg/cm2 in experiment [1] and in experiment [2] was 50 to 100% in each case.

With `COC(=O)CC(NC(=O)c1ccc(/C(F)=C/C(c2cc(Cl)c(Cl)c(Cl)c2)C(F)(F)F)cc1C(F)(F)F)C(F)(F)F` (stereo not shown) [F166, Methyl (Z)-4,4,4-trifluoro-3-(4-(1,4,4,4-tetrafluoro-3-(3,4,5-trichlorophenyl)but-1-en-1-yl)-2-(trifluoromethyl)benzamido)butanoate], the pest or weed control at 50 µg/cm2 in experiment [1] and in experiment [2] was 50 to 100% in each case.

On to `C[C@@H](NC(=O)c1ccc(/C(F)=C/C(c2cc(Cl)c(Cl)c(Cl)c2)C(F)(F)F)cc1C(F)(F)F)C(=O)NC1CC(F)(F)C1` (stereo partly drawn) [F168, N—((R)-1-((3,3-difluorocyclobutyl)amino)-1-oxopropan-2-yl)-4-((Z)-1,4,4,4-tetrafluoro-3-(3,4,5-trichlorophenyl)but-1-en-1-yl)-2-(trifluoromethyl)benzamide], for which the pest or weed control at 50 µg/cm2 in experiment [1] and in experiment [2] was 50 to 100% in each case.

With `C[C@@H](NC(=O)c1ccc(/C(F)=C/C(c2cc(Cl)c(Cl)c(Cl)c2)C(F)(F)F)cc1C(F)(F)F)C(=O)N(O)CC(F)(F)F` (stereo partly drawn) [F169, N—((R)-1-(Hydroxy(2,2,2-trifluoroethyl)amino)-1-oxopropan-2-yl)-4-((Z)-1,4,4,4-tetrafluoro-3-(3,4,5-trichlorophenyl)but-1-en-1-yl)-2-(trifluoromethyl)benzamide], the pest or weed control at 50 µg/cm2 in experiment [1] and in experiment [2] was 50 to 100% throughout.
